# Where “and” joins values, the source holds several entries; their conditions need not be identical. Identical values can stand only once. Entries after “also recorded” stand apart in the source; their conditions may differ.
# Experiments:
# [1] = system: coxsackie B group virus B3 type Nancy strains (CVB3); assay: Life protection (survival time) of mice infected by CVB3; format: in vivo, Balb/c male mice; settings: for Survival time M: CVB3-infected mice, observed 14 days; for prolonged survival time, extended percentage: vs virus control
# Experimental: (§1) The thin Leaf inula flower lactone A compound from Example 1 was used; a viral strain: coxsackie B group virus B3 type Nancy strains (CVB3) was used at a virus infection dose of 10LD50 virus 0.2 ml through abdominal cavity infection in mice. The animals used were Balb/c male mice, 13 g to 15 g, from Shanghai West S&P-Bick Experimental Animals Co., Ltd. with animal number: qualified SCXX (Shanghai), 2008-0016. The positive control medicine was human recombinant interferon alpha 2 a, YinTeFen, Shenyang Junior Pharmaceutical co., Ltd., Product batch number 20090708.
# (§2) Preparation and administration: the line leaf inula flower lactone A compound was weighed, ground, and suspended in 0.5% CMC (carboxymethyl cellulose) mixture at 10 mg/ml solution. Oral administration of the medicine was conducted for once per day, every time at 0.5 ml, for 7 days.
# (§3) The experimental groups included (1) the viral infection group, each group had 10 mice, were given 0.5% CMC solution and virus.
# Test process was that after virus infection in mice (except the normal control group) for 2 hours, total drug delivery was performed 7 days in a row, observation was conducted until 14 days. The incidence and deaths were recorded every day, and the average survival days prolongation of life were calculated with p value calculation.
# [2] = system: coxsackie B group virus B3 type Nancy strains (CVB3); assay: CVB3-infected mice myocardial virus measured on cell model at 7th day (heart homogenate 1:10, cell lesions); format: in vivo, Balb/c male mice; settings: for 1:10 (cell lesions from myocardial homogenate) / Lesions rate % / Average disease rate % / Reduce lesions: 7th day; for 1:10 (cell lesions from myocardial homogenate) / Lesions rate %: individual mice NO 1-5, listed as leaves Inula flowers lactone A; for Average disease rate %: virus control 90%; for Reduce lesions: vs virus control
# Experimental: as §1, §2, §3
# (§4) Another group of 10 mice, with infection, was weighed after 7 days. Four mice were taken to detect cardiac function, and killed and dissected for collecting blood to test neutralizing antibody, heart weighing calculation index, and grinding the heart, with three resistance MEM fluid containing 10%. 1:10 dilution, on the cell model to detect coxsackie virus in mice drop degree (to observe the myocardial cell lesions) separation of virus infection.
# [3] = system: CVB3-Infected Mice; assay: Live body weight in CVB3-infected mice; format: in vivo, Balb/c male mice
# Experimental: as §1, §2, §3, §4
# [4] = system: coxsackie B group virus B3 type Nancy strains (CVB3); assay: Serum neutralizing antibody in CVB3-infected mice; format: in vivo, Balb/c male mice; settings: oral treatment; concentration-response relationship by 7 days
# Experimental: as §1, §2, §3
# as §4, with “1:10 dilution, on the cell model to detect coxsackie virus in mice drop degree (to observe the myocardial cell lesions) separation of virus infection.” left out
# [5] = system: mouse EAM model; assay: Mouse experimental autoimmune myocarditis (EAM) model: HW/BW, cardiac morphology, HE pathology; format: in vivo, mice
# Experimental: (§5) Pig myocardial myosin (PCM, 1 mg/ml; Sigma, St. Louis, Mo.) (Sigma), and equal volume of Freund's Complete Adjuvant (FCA, Sigma St. Louis, Mo.), were in an uniform emulsification and mixed into a homogeneous emulsion, where the mycobacterium tuberculosis H37Ra bead (Difco, Detroit, Mich.) with final concentration at 5 mg/ml. In the 0th day, the emulsion 0.2 ml (including antigen 200 μg) was taken and subcutaneously administered at the bilateral inguinal and multiple points under the armpit in mice. Seven days after the first immunization, the same procedure was performed to strengthen the immune once. The animals were divided into groups, each group had six mice.
# (§6) Beginning on the day of immunity, the mice were given line leaf inula flower lactone A continuously for 21 days. Two dosing methods were applied:
# (§7) (1) intraperitoneal injection: Line leaf inula flower lactone A of Example 1 was dissolved in phosphate buffer solution (PBS) (containing 5% DMSO (dimethyl sulfoxide)). The 4 concentration gradients were at 2.5 mg/kg/d^−1 (2.5 mg/kg every time, once a day); 5 mg/kg/d^−1; 10 mg/kg/d^−1; and 20 mg/kg/d^−1.
# (2) Intragastric Administration: Line leaf inula flower lactone A suspended in 0.5% CMC-Na (carboxymethyl cellulose sodium). The 3 concentration gradients were at: 10 mg/kg/d^−1; 50 mg/kg/d^−1; and 100 mg/kg/d^−1.
# (§8) Mice after 21 days were killed by taking off the neck, shearing heart, weighing and take photos, pathological section (HE hematoxylin-eosin staining), cytokine TNF-α change.
# (1) heart and body weight ratio (HW/BW). Myocarditis in mice after the onset of the myocarditis should have the heart weight/body weight ratio larger than the model group, if the medication was effective, the ratio should be small and close to the normal group.
# (2) Cardiac morphology. After the onset of the EAM in mice, the heart appeared swelling and pale as the result of the infiltration by inflammatory cells. Intraperitoneal injection of the line leaf inula flower lactone A (XX-3) were given at various dosages.
# (4) pathology (conventional HE staining). Mice were killed by taking off the neck, heart was taken out, and residual blood was removed. Each heart was fixed in 10% formaldehyde, paraffin embedded, continuous sliced with conventional HE staining and observed under the microscope. The model group had visible focal myocardial cell degeneration necrosis, cytoplasm red dye, nuclear disappeared, with some muscle dissolved, interstitial broadening, and various inflammatory cell infiltration.
# [6] = system: TNF-α; assay: Serum TNF-α in the mouse EAM model; format: in vivo, mice
# Experimental: as §5, §6, §7, §8
# (3) TNF-α change. TNF-α was an inflammation factor that played an important role in the onset of the EAM. […]
compound,measurement,setting,value
C=C1C(=O)O[C@H]2C[C@@H](C)[C@@H]3[C@@H](OC(C)=O)C[C@H](O)[C@@]3(C)[C@@H](OC(C)=O)[C@H]12 [line leaf inula flower lactone A],Survival time M,[1]; 10 mg/kg oral once per day for 7 days,8.9 days
same,"prolonged survival time, extended percentage",[1]; 10 mg/kg oral,21.92%
same,Survival time M,[1]; 50 mg/kg oral once per day for 7 days,9 days
same,"prolonged survival time, extended percentage",[1]; 50 mg/kg oral,23.29%
same,Survival time M,[1]; 100 mg/kg oral once per day for 7 days,9.4 days
same,"prolonged survival time, extended percentage",[1]; 100 mg/kg oral,28.77%
same,activity against coxsackie virus,"[1]; summary statement, concentration-response correlation",has activity against coxsackie virus
same,1:10 (cell lesions from myocardial homogenate),[2]; 10 mg/kg oral,+ (: + 50%); also recorded: ++ (++ 100%)
same,Lesions rate %,[2]; 10 mg/kg oral,50% (4×) and 100%
same,Average disease rate %,[2]; 10 mg/kg oral,60%
same,Reduce lesions,[2]; 10 mg/kg oral,33.33%
same,1:10 (cell lesions from myocardial homogenate),[2]; 50 mg/kg oral,± (plus or minus: 0%); also recorded: + (: + 50%); also recorded: ++ (++ 100%)
same,Lesions rate %,[2]; 50 mg/kg oral,25% and 50% (3×) and 100%
same,Average disease rate %,[2]; 50 mg/kg oral,55%
same,Reduce lesions,[2]; 50 mg/kg oral,38.89%
same,1:10 (cell lesions from myocardial homogenate),[2]; 100 mg/kg oral,± (plus or minus: 0%); also recorded: + (: + 50%)
same,Lesions rate %,[2]; 100 mg/kg oral,25% (2×) and 50% (3×)
same,Average disease rate %,[2]; 100 mg/kg oral,40%
same,Reduce lesions,[2]; 100 mg/kg oral,55.56%
same,effect on the coxsackie virus replication in the myocardial,"[2]; CVB3-infected mice, oral treatment",inhibitory effect
same,Live body weight M ± SD,"[3]; 10 mg/Kg, 4 days",15.23 ± 1.01
same,Live body weight M ± SD,"[3]; 10 mg/Kg, 8 days",15.59 ± 0.89
same,Live body weight M ± SD,"[3]; 10 mg/Kg, 14 days",17.92 ± 1.10
same,Live body weight M ± SD,"[3]; 10 mg/Kg, Before",14.59 ± 0.71
same,Live body weight M ± SD,"[3]; 50 mg/Kg, 4 days",15.14 ± 0.68
same,Live body weight M ± SD,"[3]; 50 mg/Kg, 8 days",16.03 ± 0.96
same,Live body weight M ± SD,"[3]; 50 mg/Kg, 14 days",18.33 ± 0.80
same,Live body weight M ± SD,"[3]; 50 mg/Kg, Before",14.58 ± 0.49
same,Live body weight M ± SD,"[3]; 100 mg/Kg, 4 days",15.13 ± 0.88
same,Live body weight M ± SD,"[3]; 100 mg/Kg, 8 days",16.1 ± 1.05
same,Live body weight M ± SD,"[3]; 100 mg/Kg, 14 days",18.21 ± 0.86
same,Live body weight M ± SD,"[3]; 100 mg/Kg, Before",14.57 ± 0.55
same,effect on neutralizing antibodies in the CVB3-infected mice,[4],improved the neutralizing antibodies
same,curative effect on EAM in mice,[5]; 100 mg/kg/d intragastric administration,has certain curative effect
same,"pathology (HE staining), efficacy",[5]; intragastric administration at 100 mg/kg·d^−1,worked the best
same,"Cardiac morphology, effect on the EAM model","[5]; intragastric administration, 21 days, FIG. 3",has curative effect on the EAM model
same,"Cardiac morphology, efficacy","[5]; intraperitoneal injection 20 mg/kg/d^−1, 21 days",worked the best efficacy
same,heart and body weight ratio (HW/BW),"[5]; intraperitoneal injection 20 mg/kg/d^−1, 21 days, FIG. 1",changed HW/BW significantly
same,"pathology (HE staining), efficacy",[5]; intraperitoneal injection at 20 mg/kg·d^−1,worked the best
same,occurrence of the EAM in mice,[5]; intraperitoneal injection of 20 mg/kg/d,prevents the occurrence of the EAM in mice
same,most effective dose (cardiac morphology),"[5]; intraperitoneal injection, 21 days",20 mg/kg/d^−1
same,"Cardiac morphology, degree and extent of the lesion vs model and solvent control groups","[5]; intraperitoneal injection, various dosages (2.5-20 mg/kg/d^−1), 21 days, FIG. 2",various degrees of improvement
same,"pathology (HE staining), myocardial inflammation","[5]; various dosages, vs model and solvent control groups, FIG. 5",had curative effect on myocardial inflammation in mice
same,levels of serum TNF-α vs model group,"[6]; intraperitoneal injection 20 mg/kg, 21 days, #P<0.05",the difference was significant
same,levels of serum TNF-α vs model group,"[6]; intraperitoneal injection, 21 days after first immunization, FIG. 4",decreased
